Experimental data taken from patent publication US9562024B2, “Vortioxetine salt and crystal thereof, their preparation method, pharmaceutical compositions and usage” (HANGZHOU PUSHAI PHARMACEUTICAL TECHNOLOGY CO., LTD, priority 2013, dated 2017).
Counter-ions that a name gives are not always drawn.

Experiments:
Type in all cases: physicochemical
[1] = Inventors' studies of the known crystalline forms of vortioxetine hydrobromide of WO2007/144005A1
From the text: In studies, the inventors of the present invention found out that the multiple crystalline forms of vortioxetine hydrobromide disclosed in WO2007/144005A1 have the following disadvantages: […]

[2] = Dissolution of tablets (paddle method, water), Example 140; conditions: 37° C.
Procedure: The crystalline form of vortioxetine hemihydrobromide of the present invention, the β Form of vortioxetine hydrobromide prepared in preparation example 2 and the β Form of vortioxetine hydrobromide containing 20% of the crystalline form of vortioxetine hemihydrobromide of the present invention were tableted by the method in example 105 and then subjected to phase stability comparison. Dissolution was determined by reference to the dissolution conditions of Benorilate Tablets described in 2010 Chinese Pharmacopoeia. The paddle method was used with the paddle rotation speed at 50 r/min. 900 mL of water was the dissolution medium. The temperature was 37° C. Take 3 mL of the dissolution medium for sampling at 2, 10, 20, 40 and 60 min respectively. Each time after sampling, 3 mL of water was added back to dissolution medium to supplement the volume. The concentration of the dissolution medium at each time point was measured by HPLC, and the dissolution profile was plotted.

[3] = Hygroscopicity comparison (DVS isothermal sorption); conditions: relative humidity range 20%-80%
Procedure: Dynamic vapor sorption (DVS) data were collected using TA Instruments Q5000 TGA. The instrument control software was Thermal Advantage, and the analytical software was Universal Analysis. Usually, 1-10 mg of the sample was placed in a platinum pan and the weight change of the sample during experiments was recorded. The relative humidity was usually programmed to change from 20% to 80% and then back to 20%, and an isothermal sorption curve could be generated. Depending on specific situations, different sorption and desorption procedures might be used.
Hygroscopicity comparison: DVS isothermal sorption curves were used, and weight changes within the 20%-80% RH range were measured.

[4] = Dissolution comparison of sustained-release tablets, Example 144; conditions: water, 37° C.
Procedure: The crystalline form of vortioxetine hemihydrobromide of the present invention and the β Form of vortioxetine hydrobromide prepared in preparation example 2 were tableted by the method of example 141 and then subjected to dissolution comparison. Water was used as the dissolution medium. Parameter setting of the dissolution tester: The temperature was 37° C. The rotate speed of the stirring paddle was 50 r/min. Take 3 ml of the dissolution medium out at 0.5, 1, 2, 6 and 12 hours respectively. Each time after sampling, 3 mL of water was added back to the dissolution medium to supplement the volume. The concentration of the dissolution medium at each time point was determined by HPLC.

[5] = Stability competition test (competitive slurry, XRPD); conditions: for Stability Competition Test: crystalline form after competitive slurry (XRPD): equal quantities of both forms slurried 7 days in ethanol or water; for Stability competition test: crystalline form after slurry: slurried in water or ethanol
Procedure: Stability competition test: An equal quantity (250 mg) of the crystalline vortioxetine hemihydrobromide form of the present invention prepared in example 4 and the β Form of vortioxetine hydrobromide prepared in preparation example 2 were respectively added to 3 mL of ethanol or water to produce suspensions. No solvate was formed in ethanol or water. The suspensions were slurried for 7 days at room temperature or at 60° C., and then XRPD characterization analyses were performed.

[6] = high-temperature conditions, hydrobromide

## Cc1ccc(Sc2ccccc2N2CCNCC2)c(C)c1 [α Form of vortioxetine hydrobromide, vortioxetine hydrobromide]
[1]; room temperature
  Stability of the crystalline form: transformed to the β Form of vortioxetine hydrobromide

## Cc1ccc(Sc2ccccc2N2CCNCC2)c(C)c1 [hydrate of vortioxetine hydrobromide, vortioxetine hydrobromide]
[1]; [6]
  Stability of the crystalline form: lost water

## Cc1ccc(Sc2ccccc2N2CCNCC2)c(C)c1 [vortioxetine hemihydrobromide]
[2]; tablets by method of example 105, 900 mL water, paddle 50 r/min, 2 min, hemihydrobromide
  Cumulative dissolution: 8.2%
[2]; tablets, water, 60 min
  Cumulative dissolution: 100.0%
[3]; listed as Example 4, hemihydrobromide
  Hygroscopicity Comparison (weight change): 0.28%
[3]; listed as the vortioxetine hemihydrobromide crystalline form of the present invention, hemihydrobromide
  Hygroscopicity Comparison (weight change): 0.28%
[4]; sustained-release tablets by method of example 141, paddle 50 r/min, 0.5 hours, hemihydrobromide
  Cumulative dissolution: 8.1%
[5]; 60° C., listed as the vortioxetine hemihydrobromide crystalline form of the present invention, hemihydrobromide
  Stability Competition Test: crystalline form after competitive slurry (XRPD): kept unchanged
[5]; room temperature, listed as the vortioxetine hemihydrobromide crystalline form of the present invention, hemihydrobromide
  Stability Competition Test: crystalline form after competitive slurry (XRPD): invention kept unchanged”
[5]; temperature not stated, hemihydrobromide
  Stability competition test: crystalline form after slurry: keeping its crystalline form unchanged

## Cc1ccc(Sc2ccccc2N2CCNCC2)c(C)c1 [ethyl acetate solvate of vortioxetine hydrobromide]
[1]; high-humidity conditions
  Stability of the crystalline form: transformed to hydrate
[1]; [6]
  Stability of the crystalline form: lost ethyl acetate

## Cc1ccc(Sc2ccccc2N2CCNCC2)c(C)c1 [the β Form of vortioxetine hydrobromide, 1-[2-(2,4-dimethylphenylsulfanyl)phenyl]piperazine hydrobromide]
[3]; listed as the known β Form of vortioxetine hydrobromide, hydrobromide
  Hygroscopicity Comparison (weight change): 0.60%
[4]; sustained-release tablets by method of example 141, paddle 50 r/min, 0.5 hours, hydrobromide
  Cumulative dissolution: 50.0%
[4]; sustained-release tablets, 12 hours, hydrobromide
  Cumulative dissolution: 100.0%
[5]; 60° C., listed as the known β Form of vortioxetine hydrobromide, hydrobromide
  Stability Competition Test: crystalline form after competitive slurry (XRPD): completely transformed into the vortioxetine hemihydrobromide crystalline form of the present invention
[5]; room temperature, listed as the known β Form of vortioxetine hydrobromide, hydrobromide
  Stability Competition Test: crystalline form after competitive slurry (XRPD): completely transformed into the vortioxetine hemihydrobromide crystalline form of the present invention
[5]; temperature not stated at the place, hydrobromide
  Stability competition test: crystalline form after slurry: transformed to the vortioxetine hemihydrobromide crystalline form of the present invention
[5]; temperature not stated at the place, listed as β Form of vortioxetine hydrobromide, hydrobromide
  Stability competition test: crystalline form after slurry: failed to maintain its original crystalline form
[5]; temperature not stated, listed as the known β Form of vortioxetine hydrobromide, hydrobromide
  Stability competition test: crystalline form after slurry: completely transformed to the crystalline vortioxetine hemihydrobromide of the present invention
